From patent US12582614B2, “Composition for preventing, alleviating or treating sarcopenia, containing D-ribo-2-hexulose as active ingredient” (KYUNGPOOK NATIONAL UNIVERSITY INDUSTRY-ACADEMIC COOPERATION …, priority 2021, dated 2026)

Tests used:
Format in all cases: in vivo, C57BL/6J male mice
[1] = system: CISH, CerS1, Adiponectin, Adipsin, CIDEC, Haptoglobin, Neuronatin, SCD1; test: mRNA sequencing of gastrocnemius tissue (differentially expressed genes); details: vs NC group, FC cutoff 2 or more, p < 0.05
[2] = Body weight, food intake and organ weights of aged mice fed 3% D-ribo-2-hexulose diet for 12 weeks
Procedure: Twenty-one 48-week-old C57BL/6J male mice and seven 8-week-old C57BL/6J male mice were purchased from JA BIO Inc. (Korea). The purchased animals were raised in a breeding room with a controlled temperature (20 to 23° C.) and a light/dark cycle (a 12-hour cycle), and were provided with pelletized commercial non-purified feed for the first week.
Specifically, a negative control group (NC, n=7, American Institute of Nutrition AIN-93G Semisynthetic diet); a D-ribo-2-hexulose-treated group (D-ribo-2-hexulose; DRH, n=7; a portion of cellulose in AIN-93G was replaced with 3% D-ribo-2-hexulose). […] The dose of D-ribo-2-hexulose was set at 3% based on previous animal studies. In the previous studies, the dose of D-ribo-2-hexulose was determined to be 3% in order to investigate a biological effect at a lower dose than the dose. During the experiment, the mice had free access to distilled water, and the food intakes and body weights of the mice were measured weekly, and blood glucose was measured once every 4 weeks. All animal experiments were approved by the Animal Research Ethics Committee of KyungPook National University (Approval Number: KNU-2020-109).

aged mice = test: Whole-body tension (digital force gauge); details: DRH group; decrease in NC vs YC
Procedure: The whole-body tension was measured and evaluated using a digital force gauge (Korea, JM Instruments Corp., FGJN.FGP Series). For each mouse, the whole-body tension was measured and evaluated at intervals of 5 days. In order to evaluate the whole-body tension on week 10 of the experiment, the average value of the maximum whole-body tension was calculated as force per body weight (Ng^−1 BW).

[3] = system: MyoD, Myf5, Myf6, Myogenin, Mef2, MuRF1, Atrogin1, FoxO3; test: Real-time PCR of muscle strength-related genes
Procedure: (§1) After total RNA was isolated, total complementary DNA (cDNA) was synthesized. For real-time PCR analysis, template cDNA was diluted with RNAse-free water and used at a concentration of 25 ng/μL. Then, gene expression was analyzed using a QuantitTeck SYBR Green PCR kit (QIAGEN, Germany).
Each of the reaction solutions consisted of 10 μL of SYBR Green, 2 μL of a template, and 200 μM primers. RNAse-free water was added to a final volume of 20 μL, and reacted at 94° C. for 15 seconds, and then 58° C. and 72° C. for 30 seconds. The reaction solution was reacted 40 times at 65° C. for 30 seconds at 15 seconds per cycle. In this case, by monitoring the fluorescence signal for each cycle and analyzing the resulting threshold cycle (Ct), mRNA expression between the respective experimental groups was quantitatively analyzed using a CFX96 Real-time system (Bio-Rad, USA). GAPDH (Gene ID 14433) was used as an internal transcriptional marker, and the gene primers used for amplification were as follows: MyoD (myoblast determination protein 1, Gene ID 17927), Myf5 (Gene ID 17877), Myf6 (Gene ID 17878), Myogenin (Gene ID 17928), Mef2 (Gene ID 17260), MuRF1 (Gene ID […]), Atrogin1 (Gene ID 67731), FoxO3 (Gene ID 56484), CerS1 (Gene ID 93898(3)1), CIDEC1 (Gene ID 12700), SCD1 (Gene ID 20249), Adipsin (complement factor D, Gene ID 11537), Adiponectin (Gene ID 11450), Haptoglobin (Gene ID 15439), and Neuronatin (Gene ID 18111).

[4] = system: differentially expressed genes (DEG); test: RT-PCR and Western blotting verification of differentially expressed genes; details: verification of mRNA-seq results
Procedure: as §1
Each of the reaction solutions consisted of 10 μL of SYBR Green, 2 μL of a template, and 200 μM primers. RNAse-free water was added to a final volume of 20 μL, and reacted at 94° C. for 15 seconds, and then 58° C. and 72° C. for 30 seconds. The reaction solution was reacted 40 times at 65° C. for 30 seconds at 15 seconds per cycle. In this case, by monitoring the fluorescence signal for each cycle and analyzing the resulting threshold cycle (Ct), mRNA expression between the respective experimental groups was quantitatively analyzed using a CFX96 Real-time system (Bio-Rad, USA). […]
The amount of cytoplasmic and membrane proteins was quantified according to the Bradford method. […]

[5] = DRH group, aged mice, AIN-93G + 3% DRH 12 weeks, Mean ± SD
[6] = decrease in NC vs YC, DRH vs NC significant

O=C(CO)[C@H](O)[C@H](O)[C@H](O)CO [DRH, D-ribo-2-hexulose]
Adiponectin expression (mRNA-seq) [1]: down-regulated | Adipsin expression (mRNA-seq) [1]: down-regulated | CIDEC expression (mRNA-seq) [1]: down-regulated | CISH expression (mRNA-seq) [1]: up-regulated | CerS1 expression (mRNA-seq) [1]: up-regulated | Haptoglobin expression (mRNA-seq) [1]: down-regulated | Neuronatin expression (mRNA-seq) [1]: down-regulated | SCD1 expression (mRNA-seq) [1]: down-regulated | final body weight ([2]; DRH group vs NC group): significantly lower | kidney weight ([2]; DRH group vs NC group): increased | liver weight ([2]; DRH group vs NC group): decreased | spleen weight ([2]; DRH group vs NC group): no significant difference | weight gain ([2]; DRH group vs NC group): significantly lower | Final BW [2, 5]: 37.59 ± 0.56^$$ g | Total BWG [2, 5]: 1.36 ± 0.20^$$$ g | kidney weight [2, 5]: 1.10 ± 0.02^$$ g per 100 g BW | liver weight [2, 5]: 3.71 ± 0.07^$ g per 100 g BW | spleen weight [2, 5]: 0.20 ± 0.02 ^ g per 100 g BW | whole-body tension (aged mice): dramatically compensated for the decrease | expression of Atrogin1 gene ([3]; all three groups (YC, NC, DRH)): no significant difference | expression of FoxO3 gene ([3]; all three groups (YC, NC, DRH)): no significant difference | expression of MuRF1 gene ([3]; all three groups (YC, NC, DRH)): no significant difference | expression of MyoD gene ([3]; all three groups (YC, NC, DRH)): no significant difference | expression of Myf5 gene [3, 6]: partially improved | expression of Myf6 gene [3, 6]: partially improved | expression of Myogenin gene [3, 6]: partially improved | RT-PCR analysis and Western blotting on DEG [4]: consistent with those obtained by mRNA-seq analysis
